We go through two compounds from patent US8871772B2, “Therapeutic methods and compounds” (Ampio Pharmaceuticals, Inc., priority 2008, dated 2014).

Format in all cases: cell-based
One test relates to WM-266-4 cells. Description: Proliferation of WM-266-4 cells (separate experiment). The note with it: concentration not given. The text has this: As shown there, Cpd. […] It should also be noted that, in a separate experiment, Cpd.
The test system of test [1] is U-118 metastatic astrocytoma cell line. The test can be described thus: Proliferation of U-118 cancer cells, Promega cell titer assay. As to the method: Assays were performed to determine the effect of Cpd. 5 on proliferation of an additional cancer cell line. This cell line was the U-118 metastatic astrocytoma cell line. It was obtained from ATCC.
To perform the assays, a 50 mM stock solution of Cpd. 5 was prepared in DMSO and frozen at −80° C. […] Controls containing equivalent amounts of DMSO to the 300 μM solution were mixed for comparative purposes. 100 μl of the resulting solutions were then added to 96 well culture plates in triplicate and placed in a 37° C. incubator with 5% CO2 to warm.
Cells were removed from passage flasks using trypsin and ethylenediaminetetracetic acid (EDTA) and counted using trypan blue to establish cell counts/ml and viability. For all experiments, viability of cells was greater than 95%. Solutions of 4,000 cells/100 μl were prepared in the medium from above, and 100 μl of the solutions were added to each well of the plates. The plates were placed back in the incubator and incubated with the compounds for 96 hours.
Following incubation, cell proliferation was assayed by adding 20 μl Promega cell titer aqueous one reagent to each well. Promega cell titer reagent is a solution containing a tetrazolium dye that is reduced by living cells to a formazan dye, and this reduction is proportional to the number of living cells present in the well. The plates were incubated at 37° C. for an additional 4 hours to allow the colorimetric assay to develop, and the OD of each well was determined in a microplate reader using a 530 nm filter. The OD of wells containing cell titer reagent in culture medium with no cells was subtracted from the OD of all experimental readings.
The % decrease of the total cell titer signal was determined using the following formula. ((Diluent OD−Experimental OD)/Diluent OD))×100. Data are presented in Table 5 as mean % decrease of cell titer signal of three separate experiments, plus or minus standard deviation. In the mean % decrease column, a positive number means a decrease in cell titer signal, while a negative number means an increase in cell titer signal. The p values were calculated versus diluent controls.
The above experiment was repeated using the U-118 cells at 3000 cells/well.

A further test deals with STTG cells. Description: Cytotoxicity on confluent STTG monolayers, cell titer assay. As for the experimental part: To determine whether the decrease in cell titer signal caused by Cpd. 5 was due to the inhibition of proliferation or to cytotoxicity, STTG and AU565 cells were seeded at 10,000 cells/well in 96-well plates and grown until a confluent monolayer was obtained. Under these conditions, the cells should no longer proliferate. The culture medium was IMDM supplemented with 10% FBS. After the cells reached confluence, the culture medium was removed by aspiration and replaced with fresh medium containing the test compounds (see Table 2 below). The cell cultures were incubated for an additional 24 hours in the presence of the added compounds and then the cell titer signal was assayed by adding 20 μl Promega cell titer aqueous one reagent to each well. The plates were incubated at 37° C. for an additional 2 hours to allow the colorimetric assay to develop, and the OD of each well was determined in a microplate reader using a 530 nm filter. The OD of wells containing cell titer reagent in culture medium with no cells was subtracted from the OD of all experimental readings.
The % decrease of the total cell titer signal was determined using the following formula. ((Diluent OD−Experimental OD)/Diluent OD))×100. Data are presented in Table 2 as mean % decrease of cell titer signal of three separate experiments, plus or minus standard deviation. In the mean % decrease column, a positive number means a decrease in cell titer signal, while a negative number means an increase. The p values were calculated versus diluent controls.
This experiment was repeated, except using incubations of 18 hours, instead of 24 hours, in the presence of the compounds and 4 hours, instead of 2 hours, for color development.

The next test relates to Akt. Description: Akt phosphorylation in WM-266-4 melanoma cells, CASE ELISA (S473). As to conditions: IGF-1 stimulated; for inhibition at 50 µM: WM 266-4, WM-266-4, 50 μM. As for the experimental part:
Assays were performed to determine the effect of Cpd. 5 (synthesis described in Example 1) on phosphorylation of Akt in WM-266-4, a metastatic melanoma cell line obtained from ATCC. The WM-266-4 cells were grown in 25 cm^2 flasks using IMDM medium (obtained from Lonza) supplemented with 10% fetal bovine serum (FBS, HyClone) and 1% penicillin/streptomycin solution (Lonza). Cells were removed from the flasks using trypsin/EDTA (Lonza) and counted using trypan blue to establish cell counts. Cells in the above supplemented IMDM medium were added to the wells of a 96-well plate (10,000 cells/well), and the plates were incubated at 37° C., 5% CO2, for 24 hours. After 24 hours, the medium was removed and replaced with medium not containing any serum (serum-free IMDM), and the plates were incubated at 37° C., 5% CO2, for an additional 24 hours.
After this incubation, the test compounds were added to the plates as follows. A 20 mM stock solution of Cpd. 5 was prepared in DMSO and frozen at −80° C. Aliquots of the stock solution were removed and dilutions were made in serum-free IMDM medium. Final concentrations of Cpd. 5 were 10 μM and 50 μM. Controls containing equivalent amounts of DMSO as the two concentrations of Cpd. 5 (0.05% and 0.25%) were mixed for comparative purposes. The other control was the PI3 kinase inhibitor, LY294002 (obtained from Sigma), final concentration of 50 μM. 100 μl of each test compound solution were then added to 96 well culture plates in duplicate, and the plates were placed back into the incubator and incubated at 37° C., 5% CO2, for 1 hour.
Following this incubation, 100 μl of serum-free IMDM containing either 0 or 400 ng/ml IGF-1 (obtained from Sigma), an Akt phosphorylation promoter, were added, and the plates incubated at 37° C., 5% CO2, for 1 more hour. At the end of this time, the cells were fixed immediately with 4% formaldehyde, refrigerated, and the extent of phosphorylation of Akt determined using the Akt Cellular Activation of Signaling ELISA (CASE™ Kit for AKT S473; SABiosciences, Frederick, Md.) following the manufacturer's protocols. The CASE™ Kit for AKT S473 quantifies the amount of activated (phosphorylated) Akt protein relative to total Akt protein. For further details of the CASE ELISA assay, see Example 6.
The results were calculated as follows. The treatment groups containing IGF-I/DMSO were subtracted from their respective IGF-1/DMSO only groups (positive control). This value was divided by the difference between the respective DMSO only group (negative control) and the respective positive control. This value represents the percent inhibition of Akt phosphorylation attributable to the inhibitor alone since the contribution of DMSO is subtracted out.

As for `COC(=O)C(c1ccc(-c2ccccc2)cc1)C1NC(=O)CNC1=O` (stereo not shown) [Cpd. 5, biphenyl-4-yl-(3,6-dioxo-piperazin-2-yl)-acetic acid methyl ester], in the test with WM-266-4 cells, the “inhibition of the proliferation of WM-266-4 cells” value is “did not inhibit”. The “MEAN % DECREASE of cell titer signal” value in test [1] (U-118, 3000 cells/well, 25 μM final) is on record as −25.28%; in test [1] (U-118, 3000 cells/well, 37.5 μM final), −25.28%; in test [1] (U-118, 3000 cells/well, 50 μM final), −15.63%; in test [1] (U-118, 3000 cells/well, 75 μM final) it was −3.05%; in test [1] (U-118, 3000 cells/well, 100 μM final), 20.51%; in test [1] (U-118, 3000 cells/well, 150 μM final), 59.70%. Further, the “MEAN % DECREASE of cell titer signal” value is reported as −50.62% in test [1] (U-118, 4,000 cells/well, 25 μM final, 96 hours); −46.50% in test [1] (U-118, 4,000 cells/well, 37.5 μM final, 96 hours); −7.82% in test [1] (U-118, 4,000 cells/well, 50 μM final, 96 hours); 4.11% in test [1] (U-118, 4,000 cells/well, 75 μM final, 96 hours); 25.93% in test [1] (U-118, 4,000 cells/well, 100 μM final, 96 hours); 65.84% in test [1] (U-118, 4,000 cells/well, 150 μM final, 96 hours). Moreover, the “MEAN % DECREASE of cell titer signal” value is listed as 0.81% in the test with STTG cells (10 μM, 18 hours); −7.13% in the test on STTG cells (10 μM, 24 hours); 21.25% in the test on STTG cells (50 μM, 18 hours); −1.76% in the test with STTG cells (50 μM, 24 hours); 18.96% with STTG cells (100 μM, 18 hours); −10.79% in the test on STTG cells (100 μM, 24 hours). In the test with Akt (Homo sapiens, WM 266-4, WM-266-4, 10 μM), the inhibition at 10 µM stood at 102%. For the same compound, the inhibition at 50 µM in the test on Akt (Homo sapiens) stood at 47%. The “MEAN % INHIBITION OF Akt PHOSPHORYLATION” value in the test with Akt (WM-266-4, 50 μM, 50 µM) is 55.9%.

For `O=c1cc(N2CCOCC2)oc2c(-c3ccccc3)cccc12` [LY294002, reference compound], in the test with WM-266-4 cells, the “inhibition of the proliferation of WM-266-4 cells” value is listed as 105%. For the same compound, the “MEAN % DECREASE of cell titer signal” value in test [1] (U-118, 3000 cells/well, 40 μM final) is given as 86.04%; in test [1] (U-118, 4,000 cells/well, 20 μM final, 96 hours), 19.75%; with STTG cells (50 μM, 18 hours) it was 26.27%; with STTG cells (50 μM, 24 hours) it was 26.12%. The inhibition at 50 µM with Akt (Homo sapiens) stood at 23.1%.
